According to patent US9913905B2 (EAGLE BIOLOGICS, INC., priority 2013, dated 2018):
“And” between values parts separate entries of the source, which are not always exact repeats. Identical values can stand only once.

How the values were obtained:
biosimilar AVASTIN® = assay: Viscosity of concentrated aqueous solutions of biosimilar AVASTIN® (mVROC microfluidic viscometer); type: physicochemical
Method: All viscosities of well-mixed aqueous mAb solutions were measured using either a mVROC microfluidic viscometer (RheoSense) or a DV2T cone and plate viscometer (Brookfield; “C & P”) after a 5 minute equilibration at 25° C. (unless otherwise indicated). The mVROC viscometer was equipped with an “A” or “B” chip, each manufactured with a 50 micron channel. Typically, 0.10 mL of protein solution was back-loaded into a gastight microlab instrument syringe (Hamilton; 100 μL), affixed to the chip, and measured at multiple flow rates, approximately 20%, 40%, and 60% of the maximum pressure for each chip. […] An average absolute viscosity and standard deviation was then calculated from at least these three measurements. The C & P viscometer was equipped with a CPE40 or CPE52 spindle (cone angle of 0.8° and 3.0°, respectively) and 0.50 mL samples were measured at multiple shear rates between 2 and 400 s^−1. […] An extrapolated zero-shear viscosity was then determined from a plot of dynamic viscosity versus shear rate for the samples measured on a DV2T cone and plate viscometer. The extrapolated zero-shear viscosities reported are the average and standard deviation of at least three measurements.
First, Polysorbate 20 was removed using DETERGENT-OUT® TWEEN Medi Columns (G-Biosciences). […] Then, an appropriate amount of viscosity-reducing organophosphate solution (pH 7.0) was added to each aliquot such that upon reconstitution with water, the final excipient concentration was 0.10-0.25 M. The protein solutions were then freeze-dried. The dried protein cakes, containing protein and viscosity-reducing organophosphate (and a negligible amount of buffer salts) were reconstituted to a final volume of approximately 0.1 mL and viscosity-reducing organophosphate concentration as previously described. […] The dried protein cakes, containing protein and buffer salts were reconstituted to a final volume of approximately 0.10-0.50 mL. […] Viscosities reported were measured on a RheoSense mVROC microfluidic viscometer.
Viscosities reported were measured on a RheoSense mVROC microfluidic viscometer.

[1] = test system: therapeutically relevant mAbs; settings: in some cases; Table 3
Method: All viscosities of well-mixed aqueous mAb solutions were measured using either a mVROC microfluidic viscometer (RheoSense) or a DV2T cone and plate viscometer (Brookfield; “C & P”) after a 5 minute equilibration at 25° C. […] The mVROC viscometer was equipped with an “A” or “B” chip, each manufactured with a 50 micron channel. Typically, 0.10 mL of protein solution was back-loaded into a gastight microlab instrument syringe (Hamilton; 100 μL), affixed to the chip, and measured at multiple flow rates, approximately 20%, 40%, and 60% of the maximum pressure for each chip. […] An average absolute viscosity and standard deviation was then calculated from at least these three measurements. The C & P viscometer was equipped with a CPE40 or CPE52 spindle (cone angle of 0.8° and 3.0°, respectively) and 0.50 mL samples were measured at multiple shear rates between 2 and 400 s^−1. Specifically, samples were measured for 30 seconds each at 22.58, 24.38, 26.25, 28.13, 30, 31.88, 45, 67.5, 90, 112.5, 135, 157.5, 180, 202.5, 247, 270, 292.5, 315, 337.5, 360, 382, 400 s^−1, starting at a shear rate that gave at least 10% torque, and continuing until instrument torque reached 100%. An extrapolated zero-shear viscosity was then determined from a plot of dynamic viscosity versus shear rate for the samples measured on a DV2T cone and plate viscometer. […]

HERCEPTIN® = assay: Viscosity of concentrated aqueous solutions of HERCEPTIN® (mVROC microfluidic viscometer); type: physicochemical; settings: organophosphate 0.25M
biosimilar RITUXAN® = assay: Viscosity of concentrated aqueous solutions of biosimilar RITUXAN® (mVROC microfluidic viscometer); type: physicochemical; settings: organophosphate 0.10M
Method: (unless otherwise indicated).
A commercially-obtained biosimilar AVASTIN® (100-400 mg) containing pharmaceutical excipients (Polysorbate 20, phosphate and citrate buffers, mannitol, and NaCl) was purified. […] Samples buffer exchanged into 2 mM PB were first aliquoted. […] For samples buffer exchanged into 20 mM PB (PB control samples), the collected protein solution was freeze-dried. […] Using the same protocol, formulations containing biosimilar ERBITUX®, TYSABRI®, HERCEPTIN®, and […]® were also prepared.

TYSABRI® = assay: Viscosity of concentrated aqueous solutions of TYSABRI® (mVROC microfluidic viscometer); type: physicochemical; settings: organophosphate 0.25M
REMICADE® = assay: Viscosity of concentrated aqueous solutions of […]® (mVROC microfluidic viscometer); type: physicochemical
[2] = test system: respiratory syncytial virus; settings: two Phase III clinical trials in the pediatric population; cited from earlier work
biosimilar ERBITUX® = assay: Viscosity of concentrated aqueous solutions of biosimilar ERBITUX® (mVROC microfluidic viscometer); type: physicochemical; settings: Biosimilar ERBITUX® 215 mg/mL; excipient 0.25M
[3] = [Excipient] 0.10 M, [mAb] 217 mg/mL, 25° C., pH 7

Compound: Nc1nc2c(ncn2[C@@H]2O[C@H](COP(=O)(O)OP(=O)(O)OP(=O)(O)O)[C@@H](O)[C@H]2O)c(=O)[nH]1 [GTP]
- Viscosity (biosimilar AVASTIN®; [Excipient] 0.10 M, [mAb] 205 mg/mL, 25° C., pH 7): 150 ± 12 cP

Compound: nicotinamide adenine dinucleotide phosphate [NADP]
- Viscosity (biosimilar AVASTIN®; [Excipient] 0.10 M, [mAb] 204 mg/mL, 25° C., pH 7): 165 ± 23 cP
- Viscosity (biosimilar AVASTIN®; [Excipient] 0.25 M, [mAb] 186 mg/mL, 25° C., pH 7): 242 ± 16 cP

Compound: Nc1ncnc2c1ncn2[C@@H]1O[C@H](COP(=O)(O)O)[C@@H](O)[C@H]1O [AMP, Adenosine Monophosphate]
- Viscosity (biosimilar AVASTIN®; [Excipient] 0.10 M, [mAb] 206 mg/mL, 25° C., pH 7): 63.2 ± 1.6 cP

Compound: Nc1ccn([C@H]2C[C@H](O)[C@@H](COP(=O)(O)OP(=O)(O)OP(=O)(O)O)O2)c(=O)n1 [dCTP-Tris, deoxycytidine triphosphate]
- Viscosity (biosimilar AVASTIN®; [3]): 325 ± 13 cP

Compound: CN(CC(=O)O)C(=N)NP(=O)(O)O [Phosphocreatine]
- Viscosity (biosimilar AVASTIN®; [Excipient] 0.25 M, [mAb] 231 mg/mL, 25° C., pH 7): >>200 cP

Compound: Nc1nc2c(ncn2[C@H]2CC(O)[C@@H](COP(=O)(O)OP(=O)(O)OP(=O)(O)O)O2)c(=O)[nH]1 (some centres unmarked) [dGTP-Tris, deoxyguanosine triphosphate]
- Viscosity (biosimilar AVASTIN®; [3]): 238 ± 31 cP

Compound: Nc1ncnc2c1ncn2[C@@H]1O[C@H](COP(=O)(O)OP(=O)([O-])OP(=O)([O-])O)[C@@H](O)[C@H]1O.[Na+].[Na+] [ATP, adenosine triphosphate]
- Viscosity (biosimilar AVASTIN®; [Excipient] 0.10 M, [mAb] 209 mg/mL, 25° C., pH 7): 52.3 ± 2.3 cP
- Viscosity (biosimilar AVASTIN®; [3]): 80.7 ± 7.1 cP

Compound: Nc1ncnc2c1ncn2[C@@H]1O[C@@H]2COP(=O)(O)OC2C1O (some centres unmarked) [cAMP-Tris, cyclic adenosine monophosphate]
- Reduction of viscosity [1]: up to 9 fold
- Viscosity (HERCEPTIN®; HERCEPTIN® 235 mg/mL): 79.5 ± 2.7 cP
- Viscosity (biosimilar RITUXAN®; Biosimilar RITUXAN® 199 mg/mL): 62.6 ± 1.7 cP
- Viscosity (biosimilar AVASTIN®; Table 2, [Excipient] 0.40 M, [biosimilar AVASTIN®] 176 mg/mL): 39.2 ± 4.3 cP
- Viscosity (biosimilar AVASTIN®; Table 2, [Excipient] 0.50 M, [biosimilar AVASTIN®] 178 mg/mL): 66.1 ± 0.4 cP
- Viscosity (biosimilar AVASTIN®; Table 3, Biosimilar AVASTIN® 216 mg/mL, organophosphate 0.25M): 85.7 ± 10.7 cP
- Viscosity (biosimilar AVASTIN®; [Excipient] 0.25 M, [mAb] 209 mg/mL, 25° C., pH 7): 62.1 ± 1.8 cP
- Viscosity (biosimilar AVASTIN®; [Excipient] 0.25 M, [mAb] 216 mg/mL, 25° C., pH 7): 85.7 ± 10.7 cP
- Viscosity (TYSABRI®; TYSABRI® 227 mg/mL): 80.1 ± 2.4 cP

Compound: Nc1ncnc2c1ncn2[C@@H]1O[C@H](COP(=O)(O)OP(=O)(O)O)[C@@H](O)[C@H]1O [ADP, Adenosine Diphosphate]
- Viscosity (biosimilar AVASTIN®; [Excipient] 0.10 M, [mAb] 215 mg/mL, 25° C., pH 7): 76.6 ± 2.2 cP

Compound: Cc1ncc(C[n+]2csc(CCOP(=O)(O)OP(=O)([O-])O)c2C)c(N)n1.Cc1nccn1CCCN [TPP-APMI, thiamine pyrophosphate 1-(3-aminopropyl)-2-methyl-1H-imidazole]
- Viscosity (REMICADE®; REMICADE® 223 mg/mL, organophosphate 0.25M): 316 ± 11 cP
- Viscosity (HERCEPTIN®; HERCEPTIN® 221 mg/mL): 60.5 ± 0.3 cP
- Viscosity (biosimilar AVASTIN®; Table 2, [Excipient] 0.10 M, [biosimilar AVASTIN®] 191 mg/mL): 23.2 ± 0.9 cP
- Viscosity (biosimilar AVASTIN®; Table 2, [Excipient] 0.20 M, [biosimilar AVASTIN®] 180 mg/mL): 20.9 ± 0.4 cP
- Viscosity (biosimilar AVASTIN®; Table 2, [Excipient] 0.50 M, [biosimilar AVASTIN®] 180 mg/mL): 111 ± 1 cP
- Viscosity (TYSABRI®; TYSABRI® 238 mg/mL): 76.3 ± 3.2 cP

Compound: C=C(OP(=O)(O)O)C(=O)O [Phosphoenol pyruvate]
- Viscosity (biosimilar AVASTIN®; [Excipient] 0.25 M, [mAb] 193 mg/mL, 25° C., pH 7): >>200 cP

Compound: palivizumab: humanized mAb directed against an epitope in the A antigenic site of the F protein of respiratory syncytial virus
- Reduction of the risk of hospitalization due to respiratory syncytial virus infection [2]: 55% and 45%

Compound: Nc1ncnc2c1ncn2[C@H]1C[C@H](O)[C@@H](COP(=O)(O)OP(=O)(O)OP(=O)(O)O)O1 [dATP-Tris, deoxyadenosine triphosphate]
- Viscosity (biosimilar AVASTIN®; [Excipient] 0.10 M, [mAb] 196 mg/mL, 25° C., pH 7): 127 ± 0.2 cP

Compound: Cc1cn([C@H]2CC(O)[C@@H](COP(=O)(O)OP(=O)(O)OP(=O)(O)O)O2)c(=O)[nH]c1=O (some centres unmarked) [dTTP-Tris, deoxythymidine triphosphate]
- Viscosity (biosimilar AVASTIN®; [Excipient] 0.10 M, [mAb] 221 mg/mL, 25° C., pH 7): 207 ± 6 cP

Compound: Cc1ncc(C[n+]2csc(CCOP(=O)(O)OP(=O)(O)O)c2C)c(N)n1.[Cl-] [TPP, thiamine pyrophosphate]
- Viscosity (REMICADE®; REMICADE® 158 mg/mL, organophosphate 0.10M): 100 ± 9 cP
- Viscosity (REMICADE®; REMICADE® 232 mg/mL, organophosphate 0.25M): 1773 ± 304 cP
- Viscosity (HERCEPTIN®; HERCEPTIN® 240 mg/mL): 156 ± 3 cP
- Viscosity (biosimilar RITUXAN®; Biosimilar RITUXAN® 193 mg/mL): 102 ± 16 cP
- Viscosity reducing ability among the organophosphates examined (biosimilar AVASTIN®; Table 1, biosimilar AVASTIN®): greatest viscosity reducing ability
- Viscosity (biosimilar AVASTIN®; Table 2, [Excipient] 0.10 M, [biosimilar AVASTIN®] 176 mg/mL): 21.1 ± 1.7 cP
- Viscosity (biosimilar AVASTIN®; Table 2, [Excipient] 0.30 M, [biosimilar AVASTIN®] 191 mg/mL): 129 ± 5 cP
- Viscosity (biosimilar AVASTIN®; Table 3, Biosimilar AVASTIN® 216 mg/mL, organophosphate 0.1M): 47.6 ± 2.7 cP
- Viscosity (biosimilar AVASTIN®; [Excipient] 0.10 M, [mAb] 201 mg/mL, 25° C., pH 7): 34.6 ± 2.1 cP
- Viscosity (biosimilar AVASTIN®; [Excipient] 0.10 M, [mAb] 216 mg/mL, 25° C., pH 7): 47.6 ± 2.7 cP
- Viscosity (biosimilar AVASTIN®; [Excipient] 0.25 M, [mAb] 210 mg/mL, 25° C., pH 7): 44.5 ± 0.9 cP
- Viscosity (biosimilar ERBITUX®): 55.6 ± 4.8 cP
